From the supplement of paper PMC11451515

Columns and labels:
Conditions in all cases: 48 h
P12-Ichikawa [1] = test: AUC of viability dose-response curve (% viability x log10 dose units); higher = less sensitive
Method in brief: (§1)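 Leukemia cells adapted to each medium were seeded in 1536-well plates (500 or 1000 cells/well) and given library compounds in DMSO for 48 h at 37°C. The 11 threefold doses spanned 47 μM to 0.79 nM, and CellTiter-Glo One luminescence was normalised per plate to DMSO and cell-free wells before four-parameter log-logistic fitting on log10 dose. Area under the curve was integrated with the trapezoidal rule, scaling curves above full viability and removing curves that failed quality control.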

NOMO1 [2] = test: as above
Method in brief: as §1

SEM cells [3] = test: as above
Method in brief: as §1

P12-Ichikawa [4] = test: cell viability relative to DMSO control; higher = less cytotoxic
Method in brief: (§2)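 Viability values are per-plate percentages of DMSO wells, with background from cell-free wells. Library compounds in DMSO were pin-dosed, in an 11-point threefold series from 47 μM to 0.79 nM, onto NOMO1 or SEM (500 cells/well) or P12-Ichikawa (1000 cells/well) leukemia cells in 1536-well plates (5 μl). Those cells had been adapted for at least four passages in each medium, and CellTiter-Glo One luminescence was read after 48 h at 37°C.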

NOMO1 [5] = test: as above
Method in brief: as §2

SEM cells [6] = test: as above
Method in brief: as §2

COc1ccc(CC2SC(=O)NC2=O)cc1C(=O)NCc1ccc(C(F)(F)F)cc1 (stereo unspecified)
AUC of viability dose-response curve
Conditions | NOMO1 [2] | P12-Ichikawa [1] | SEM cells [3]
HPLM + 10% dialyzed FBS | 416 | 430 | 381
RPMI 5 mM glucose + 10% FBS | 415 | 396 | 439
RPMI 5 mM glucose + 10% dialyzed FBS | 427 | 361 | 393

cell viability [%]
Conditions | NOMO1 [5] | P12-Ichikawa [4] | SEM cells [6]
HPLM + 10% dialyzed FBS, 0.000781 µM | 84.2 | 85.3 | 75
HPLM + 10% dialyzed FBS, 0.00234 µM | 83.3 | 84.7 | 82.5
HPLM + 10% dialyzed FBS, 0.00702 µM | 90.7 | 90.5 | 79
HPLM + 10% dialyzed FBS, 0.0211 µM | 86.1 | 96 | 82.5
HPLM + 10% dialyzed FBS, 0.0632 µM | 79.4 | 88.3 | 73.6
HPLM + 10% dialyzed FBS, 0.19 µM | 85.5 | 96.3 | 92.5
HPLM + 10% dialyzed FBS, 0.569 µM | 99.3 | 93.8 | 76.9
HPLM + 10% dialyzed FBS, 1.71 µM | 99.2 | 95 | 83.2
HPLM + 10% dialyzed FBS, 5.12 µM | 83 | 88.2 | 95.9
HPLM + 10% dialyzed FBS, 15.4 µM | 82.1 | 83.6 | 79.2
HPLM + 10% dialyzed FBS, 46.1 µM | 86.3 | 86.9 | 40.4
RPMI 5 mM glucose + 10% FBS, 0.000781 µM | 75.9 | 82.1 | 90
RPMI 5 mM glucose + 10% FBS, 0.00234 µM | 88.2 | 78.3 | 86.8
RPMI 5 mM glucose + 10% FBS, 0.00702 µM | 94 | 81 | 101
RPMI 5 mM glucose + 10% FBS, 0.0211 µM | 88 | 87 | 84.1
RPMI 5 mM glucose + 10% FBS, 0.0632 µM | 81.7 | 78.9 | 79.8
RPMI 5 mM glucose + 10% FBS, 0.19 µM | 84.1 | 83.7 | 109
RPMI 5 mM glucose + 10% FBS, 0.569 µM | 90.1 | 94.5 | 96.5
RPMI 5 mM glucose + 10% FBS, 1.71 µM | 92 | 89.2 | 106
RPMI 5 mM glucose + 10% FBS, 5.12 µM | 81.4 | 86.4 | 101
RPMI 5 mM glucose + 10% FBS, 15.4 µM | 85.3 | 77.2 | 89.9
RPMI 5 mM glucose + 10% FBS, 46.1 µM | 92 | 66.7 | 45.2
RPMI 5 mM glucose + 10% dialyzed FBS, 0.000781 µM | 89.1 | 79.5 | 88
RPMI 5 mM glucose + 10% dialyzed FBS, 0.00234 µM | 89.1 | 82.5 | 88.8
RPMI 5 mM glucose + 10% dialyzed FBS, 0.00702 µM | 86.9 | 81.7 | 88.4
RPMI 5 mM glucose + 10% dialyzed FBS, 0.0211 µM | 96 | 71.5 | 87.6
RPMI 5 mM glucose + 10% dialyzed FBS, 0.0632 µM | 89 | 74.3 | 77.6
RPMI 5 mM glucose + 10% dialyzed FBS, 0.19 µM | 93.4 | 74.2 | 98.8
RPMI 5 mM glucose + 10% dialyzed FBS, 0.569 µM | 96.7 | 80.2 | 93.8
RPMI 5 mM glucose + 10% dialyzed FBS, 1.71 µM | 86.3 | 75.1 | 97.4
RPMI 5 mM glucose + 10% dialyzed FBS, 5.12 µM | 85.9 | 74.9 | 38.6
RPMI 5 mM glucose + 10% dialyzed FBS, 15.4 µM | 79.3 | 69.3 | 83.6
RPMI 5 mM glucose + 10% dialyzed FBS, 46.1 µM | 90.8 | 63.6 | 56.1

CCC1=C2CN3C(=O)\C4=C(/C=C3/C2=NC5=CC=C(O)C=C15)[C@@](O)(CC)C(=O)OC4
AUC of viability dose-response curve
Conditions | NOMO1 [2] | P12-Ichikawa [1] | SEM cells [3]
HPLM + 10% dialyzed FBS | 226 | 109 | 158
RPMI 5 mM glucose + 10% FBS | 211 | 102 | 137
RPMI 5 mM glucose + 10% dialyzed FBS | 218 | 105 | 140

cell viability [%]
Conditions | NOMO1 [5] | P12-Ichikawa [4] | SEM cells [6]
HPLM + 10% dialyzed FBS, 0.000781 µM | 102 | 97 | 96.7
HPLM + 10% dialyzed FBS, 0.00234 µM | 96 | 95 | 95.6
HPLM + 10% dialyzed FBS, 0.00702 µM | 97.8 | 33.6 | 91.4
HPLM + 10% dialyzed FBS, 0.0211 µM | 60.5 | 14.5 | 28.1
HPLM + 10% dialyzed FBS, 0.0632 µM | 27.1 | 9.38 | 19.3
HPLM + 10% dialyzed FBS, 0.19 µM | 25.9 | 6.95 | 17
HPLM + 10% dialyzed FBS, 0.569 µM | 28.2 | 6.95 | 11.6
HPLM + 10% dialyzed FBS, 1.71 µM | 23.4 | 4.6 | 6.74
HPLM + 10% dialyzed FBS, 5.12 µM | 22.8 | 5.03 | 6.74
HPLM + 10% dialyzed FBS, 15.4 µM | 24.8 | 4.34 | 6.36
HPLM + 10% dialyzed FBS, 46.1 µM | 27 | 4.16 | 4.6
RPMI 5 mM glucose + 10% FBS, 0.000781 µM | 93 | 93.6 | 108
RPMI 5 mM glucose + 10% FBS, 0.00234 µM | 95.5 | 91.9 | 102
RPMI 5 mM glucose + 10% FBS, 0.00702 µM | 92.5 | 28.2 | 67.7
RPMI 5 mM glucose + 10% FBS, 0.0211 µM | 91.8 | 10.6 | 25.6
RPMI 5 mM glucose + 10% FBS, 0.0632 µM | 18 | 8.05 | 15.6
RPMI 5 mM glucose + 10% FBS, 0.19 µM | 16.6 | 6.33 | 16.1
RPMI 5 mM glucose + 10% FBS, 0.569 µM | 20.7 | 6.06 | 12.9
RPMI 5 mM glucose + 10% FBS, 1.71 µM | 17.4 | 5.12 | 6.76
RPMI 5 mM glucose + 10% FBS, 5.12 µM | 19.6 | 4.73 | 7.58
RPMI 5 mM glucose + 10% FBS, 15.4 µM | 16.6 | 4.49 | 5.69
RPMI 5 mM glucose + 10% FBS, 46.1 µM | 16.1 | 4.85 | 5.1
RPMI 5 mM glucose + 10% dialyzed FBS, 0.000781 µM | 104 | 98.3 | 94.5
RPMI 5 mM glucose + 10% dialyzed FBS, 0.00234 µM | 90.1 | 83.8 | 89.1
RPMI 5 mM glucose + 10% dialyzed FBS, 0.00702 µM | 91.8 | 30.2 | 65
RPMI 5 mM glucose + 10% dialyzed FBS, 0.0211 µM | 69.8 | 15.1 | 28
RPMI 5 mM glucose + 10% dialyzed FBS, 0.0632 µM | 23.6 | 11 | 16.6
RPMI 5 mM glucose + 10% dialyzed FBS, 0.19 µM | 22.5 | 7.31 | 15.2
RPMI 5 mM glucose + 10% dialyzed FBS, 0.569 µM | 26.6 | 6.37 | 12.8
RPMI 5 mM glucose + 10% dialyzed FBS, 1.71 µM | 21 | 5.25 | 6.01
RPMI 5 mM glucose + 10% dialyzed FBS, 5.12 µM | 22.7 | 5.83 | 7.69
RPMI 5 mM glucose + 10% dialyzed FBS, 15.4 µM | 22.2 | 5.8 | 5.69
RPMI 5 mM glucose + 10% dialyzed FBS, 46.1 µM | 21.2 | 5 | 4.62

NCC/1=C/NC(=S)N1[C@H]2CCC3=C(F)C=C(F)C=C3C2
AUC of viability dose-response curve
Conditions | NOMO1 [2] | P12-Ichikawa [1] | SEM cells [3]
HPLM + 10% dialyzed FBS | 395 | 464 | 458
RPMI 5 mM glucose + 10% FBS | 470 | 463 | 453
RPMI 5 mM glucose + 10% dialyzed FBS | 466 | 462 | 456

cell viability [%]
Conditions | NOMO1 [5] | P12-Ichikawa [4] | SEM cells [6]
HPLM + 10% dialyzed FBS, 0.000781 µM | – | 127 | 102
HPLM + 10% dialyzed FBS, 0.00234 µM | – | 114 | 107
HPLM + 10% dialyzed FBS, 0.00702 µM | – | 114 | 110
HPLM + 10% dialyzed FBS, 0.0211 µM | – | 126 | 109
HPLM + 10% dialyzed FBS, 0.0632 µM | – | 123 | 93.3
HPLM + 10% dialyzed FBS, 0.19 µM | – | 121 | 102
HPLM + 10% dialyzed FBS, 0.569 µM | – | 119 | 105
HPLM + 10% dialyzed FBS, 1.71 µM | – | 121 | 120
HPLM + 10% dialyzed FBS, 5.12 µM | – | 113 | 99.5
HPLM + 10% dialyzed FBS, 15.4 µM | – | 111 | 94.5
HPLM + 10% dialyzed FBS, 46.1 µM | – | 92.5 | 43.8
RPMI 5 mM glucose + 10% FBS, 0.000781 µM | 106 | 134 | 118
RPMI 5 mM glucose + 10% FBS, 0.00234 µM | 108 | 125 | 122
RPMI 5 mM glucose + 10% FBS, 0.00702 µM | 105 | 124 | 123
RPMI 5 mM glucose + 10% FBS, 0.0211 µM | 102 | 120 | 119
RPMI 5 mM glucose + 10% FBS, 0.0632 µM | 112 | 129 | 112
RPMI 5 mM glucose + 10% FBS, 0.19 µM | 103 | 132 | 114
RPMI 5 mM glucose + 10% FBS, 0.569 µM | 124 | 139 | 120
RPMI 5 mM glucose + 10% FBS, 1.71 µM | 106 | 127 | 115
RPMI 5 mM glucose + 10% FBS, 5.12 µM | 101 | 121 | 115
RPMI 5 mM glucose + 10% FBS, 15.4 µM | 105 | 116 | 108
RPMI 5 mM glucose + 10% FBS, 46.1 µM | 79.4 | 92.5 | 15.4
RPMI 5 mM glucose + 10% dialyzed FBS, 0.000781 µM | – | 124 | –
RPMI 5 mM glucose + 10% dialyzed FBS, 0.00234 µM | – | 117 | –
RPMI 5 mM glucose + 10% dialyzed FBS, 0.00702 µM | – | 128 | –
RPMI 5 mM glucose + 10% dialyzed FBS, 0.0211 µM | – | 126 | –
RPMI 5 mM glucose + 10% dialyzed FBS, 0.0632 µM | – | 120 | –
RPMI 5 mM glucose + 10% dialyzed FBS, 0.19 µM | – | 120 | –
RPMI 5 mM glucose + 10% dialyzed FBS, 0.569 µM | – | 119 | –
RPMI 5 mM glucose + 10% dialyzed FBS, 1.71 µM | – | 119 | –
RPMI 5 mM glucose + 10% dialyzed FBS, 5.12 µM | – | 117 | –
RPMI 5 mM glucose + 10% dialyzed FBS, 15.4 µM | – | 110 | –
RPMI 5 mM glucose + 10% dialyzed FBS, 46.1 µM | – | 72.7 | –
